Measured values taken from patent publication US10363253B2, “Combination products for the treatment of RSV” (priority 2016, dated 2019).
Like-named read-outs stand apart in the source and are kept apart here.

Tested on: rgRSV224, an engineered RSV strain that encodes for eGFP
Format: cell-based
Conditions: A = 0
Procedure: To evaluate their combined antiviral effect against RSV, in vitro combination studies were performed with JNJ-53718678 (“compound A”) and various compounds with different mechanisms-of-action (“compound B”). In short, 9 concentrations of Compound A were combined with 6 or 7 concentrations of a certain compound B. HeLa cells were infected with rgRSV224, an engineered RSV strain that encodes for eGFP (Hallak L K, Spillmann D, Collins P L, Peeples M E. Glycosaminoglycan sulfation requirements for respiratory syncytial virus infection; Journal of Virology (2000), 74(22), 10508-13), in the presence of various concentrations of compound A and compound B individually or in combination.
Compound stock solutions were 5 mM in 100% DMSO, with following exceptions: ribavirin, 20 mM; A 60444, 10 mM; CR9501, 141 μM in PBS; palivizumab, 156 μM in PBS; MDT 637, 100 μM in methanol. First, the compounds were serially diluted in 3-fold dilution series in DMSO; CR9501 and palivizumab were serially diluted in cell culture medium, and MDT 637 in methanol. The concentration series were diluted 100-fold in cell culture medium to achieve a combination matrix. 10 μL of these compound solutions were transferred to black 384-well clear-bottom tissue-culture treated plates. Next, 10 μL of a […] HeLa cell suspension was added to achieve 3000 cells per well. Finally, 10 μL of diluted virus stock was added to achieve an MOI of 1. The final DMSO concentration of all wells was 0.5% DMSO, except for the MDT 637 experiment where it was 0.25% DMSO+0.25% methanol. Each combination of compound concentrations was tested in 4 replicates on 3 separate plates, resulting in a total of 12 replicates. The plates were incubated for 3 days at 37° C. in a humidified atmosphere at 5% CO2. The GFP signal was measured with PerkinElmer EnVision apparatus using a 405 nm filter.
The method of Harbron (Statistics in Medicine, 2010, DOI:10.1002/sim3916) was used to assess synergy. Using the Loewe definition, two compounds are characterized as being additive, synergistic or antagonistic by:
where d1 and d2 represent the doses of the two compounds that in combination produce an effect y, and Dy,1 and Dy,2 represent the doses of the two compounds that produce the same effect, y, when administered as a monotherapy. A 3PL model (3-parameter log-logistic model) was used for the monotherapy dose-response data, where the baseline response was fixed at one.
Following Harbron's approach, the following models were fitted to the data: • “Additive”: assuming no interaction between the two compounds • “Uniform”: assuming a constant interaction index τ across all dose combinations • “Linear A”: assuming the interaction index linearly depends on the log 10 dose of compound A: z=τ1+τ2 log 10(dA) • “Separate A”: assuming the interaction index τ takes a separate value for each dose of compound A The latter two models were also considered for compound B: • “Linear B”: assuming the interaction index linearly τ depends on the log 10 dose of compound B: τ=τ1+τ2 log 10(dB) • “Separate B”: assuming the interaction index τ takes a separate value for each dose of compound B

For `O=C(Nc1ccccc1F)N[C@H]1N=C(c2ccccc2)c2ccccc2NC1=O` [Compound A-60444, (S)-1-(2-fluorophenyl)-3-(2-oxo-5-phenyl-2,3-dihydro-1H-benzo[e][1,4]diazepin-3-yl) urea, reference compound], the “normalized GFP signal” value (B (A-60444) = 34) was 1.00, the “normalized GFP signal” value (B (A-60444) = 103) was 1.00 and the “normalized GFP signal” value (B (A-60444) = 309) was 0.96. For the same molecule, the “normalized GFP signal” value (B (A-60444) = 926) was 0.93, the “normalized GFP signal” value (B (A-60444) = 2778) was 0.93 and the “normalized GFP signal” value (B (A-60444) = 8333) was 0.75. The “normalized GFP signal” value (B (A-60444) = 25000) was 0.39.
